Data on two compounds can be found in patent US20090247579A1, “2-[3H-THIAZOL-2-YLIDINEMETHYL]PYRIDINES AND RELATED COMPOUNDS AND THEIR USE” (CANCER RESEARCH TECHNOLOGY LIMITED, priority 2006, published 2009).

The subject of one assay is A2780. In words: Modified MTT assay, A2780 (parental, MMR proficient). The assay is classed as cell-based, human. As for the experimental part: (§1) Relative drug sensitivities (Resistance Factor) and IC50 values were determined by a modified MTT assay (see, e.g., Mosmann, 1983; Plumb et al., 1989), as described below: • (1) Trypsinise a sub-confluent monolayer culture and collect cells in growth medium containing serum. Centrifuge the suspension (200 g, 5 minutes) to pellet cells, re-suspend in growth medium, and count cells. Dilute cells to a density of 5×10^3 cells/mL allowing 60 mL of cell suspension for 3 microtitre plates. Transfer cell suspension to a 10 cm petri dish, and with a multichannel pipette add 200 μL to each well of the central 10 columns of a flat bottomed 96-well plate (80 wells per plate) starting with column 2 and ending with column 11. Add 200 μL of growth medium to the 8 wells in columns 1 and 12. Put the plates in a plastic box and incubate in a humidified atmosphere at 37° C. for 2-3 days so that cells are in the exponential phase of growth for drug addition. • (2) Prepare a serial 5-fold dilution of the cytotoxic drug in growth medium to give 8 concentrations. Pipette 6 mL of growth medium in to each of 7 universal containers (30 mL). Prepare 10 mL of the highest concentration of the drug and transfer 1.5 mL of this solution to the first universal container. Mix and then transfer 1.5 mL to the next universal container. Continue until the seventh universal container is reached. The concentrations should be chosen so that the highest concentration kills most of the cells and the lowest kills none of the cells. Normally, three plates are used for each drug to give triplicate determinations within one experiment. • (3) The medium is removed from all the wells in columns 2 to 11. This can be achieved with a hypodermic needle attached to a suction line. Cells in the 8 wells in columns 2 and 11 are fed with 200 μL of fresh growth medium. The drug solutions are transferred to 10 cm petri dishes and 200 μL added to all 8 wells of a column. For ease of analysis arrange the drug solutions in order so that the highest is in column 3 down to the lowest in column 10. Plates are returned to the plastic box and incubated for 24 hours. • (4) At the end of the drug exposure period, the medium is removed from all wells containing cells and the cells are fed with 200 μL of fresh medium. • (5) The plates are fed daily for two more days. • (6) The plates are fed with 200 μL of fresh medium and 50 μL of the MTT solution (5 mg/mL in PBS) is added to all wells in columns 1 to 11. Plates are wrapped in aluminium foil and incubated for 4 hours in a humidified atmosphere at 37° C. • (7) The medium and MTT are then removed from the wells and the purple MTT-formazan crystals dissolved by addition of 200 μL of DMSO to all wells in columns 1 to 11. Glycine buffer is added (25 μL per well) to all wells containing DMSO. • (8) Absorbance is recorded at 570 nm with the wells in column 1, which contained medium and MTT but no cells used as a blank. • (9) A graph is plotted of absorbance (y-axis) against drug concentration (x-axis). The mean absorbance reading from the wells in columns 2 and 11 is used as the control absorbance and the IC50 concentration is determined as the drug concentration required to reduce the absorbance to half that of the control. IC10 or IC90 values can be determined in the same manner.
(§2) A2780/cp70 and A2780/mcp1 have lost expression of MLH1, have lost MMR activity, and have microsatellite instability compared to A2780. The CpG island at the MLH1 gene is methylated in A2780/cp70 and A2780/mcp1, but not A2780.
(§3) IC50 values (μM) for A2780, A2780/cp70, and A2780/mcp1 and Resistance Factors (RF) (the fold difference in resistance from parental A2780) were determined based on the MTT assay described above for several compounds of the present invention (including, e.g., MMR201).
In general terms: Tetrazolium dyes change colour on reduction, which living cells bring about.

The next assay concerns A2780/mcp1. The assay can be described thus: Modified MTT assay, A2780/mcp1 (cisplatin resistant, MMR deficient). The class given is cell-based, human. Conditions: 24 hour drug exposure; for IC50: MTT; for A2780/mcp1 RF (Resistance Factor): fold difference in resistance from parental A2780. As for the experimental part:
as §1, §2, §3

Another assay concerns COLO320DM. In words: Modified MTT assay, colon panel COLO320DM. The class given is cell-based. As for the experimental part: (§4) Relative drug sensitivities (Resistance Factor) and IC50 values were determined by a modified MTT assay (see, e.g., Mosmann, 1983; Plumb et al., 1989), as described below: • (1) Trypsinise a sub-confluent monolayer culture and collect cells in growth medium containing serum. Centrifuge the suspension (200 g, 5 minutes) to pellet cells, re-suspend in growth medium, and count cells. Dilute cells to a density of 5×10^3 cells/mL allowing 60 mL of cell suspension for 3 microtitre plates. Transfer cell suspension to a 10 cm petri dish, and with a multichannel pipette add 200 μL to each well of the central 10 columns of a flat bottomed 96-well plate (80 wells per plate) starting with column 2 and ending with column 11. Add 200 μL of growth medium to the 8 wells in columns 1 and 12. […] Glycine buffer is added (25 μL per well) to all wells containing DMSO. • (8) Absorbance is recorded at 570 nm with the wells in column 1, which contained medium and MTT but no cells used as a blank. • (9) A graph is plotted of absorbance (y-axis) against drug concentration (x-axis). The mean absorbance reading from the wells in columns 2 and 11 is used as the control absorbance and the IC50 concentration is determined as the drug concentration required to reduce the absorbance to half that of the control. IC10 or IC90 values can be determined in the same manner. […]

The next assay has as its system HCT116 (MLH1). In words: Modified MTT assay, colon panel HCT116. The class given is cell-based, human. As for the experimental part:
as §4

The subject of the next assay is SW48 (MLH1). The assay can be described thus: Modified MTT assay, colon panel SW48. The assay is classed as cell-based. As for the experimental part:
as §4

For another assay, the system named is RKO (MLH1). In words: Modified MTT assay, colon panel RKO. The assay is classed as cell-based. As for the experimental part:
as §4

In the next assay the test system is HCT15 (MSH6). The assay can be described thus: Modified MTT assay, colon panel HCT15. The class given is cell-based. As for the experimental part:
as §4

For the next assay, the system named is BE. The assay can be described thus: Modified MTT assay, colon panel BE. The assay is classed as cell-based. As for the experimental part: as §4
A further assay concerns OVCAR5. In words: Cancer cell line panel, OVCAR5 (ovary). The class given is cell-based. As for the experimental part:
as §4

The next assay relates to OVCAR4. In words: Cancer cell line panel, OVCAR4 (ovary). The assay is classed as cell-based. As for the experimental part: as §4
Another assay relates to T47D. The assay can be described thus: Cancer cell line panel, T47D (breast). The class given is cell-based. As for the experimental part: as §4
The test system of the next assay is MCF7. The assay can be described thus: Cancer cell line panel, MCF7 (breast). The assay is classed as cell-based. As for the experimental part: as §4
The next assay relates to H125. The assay can be described thus: Cancer cell line panel, H125 (NSCLC). The assay is classed as cell-based. As for the experimental part:
as §4

In the next assay the test system is SKMES. The assay can be described thus: Cancer cell line panel, SKMES (NSCLC). The assay is classed as cell-based. As for the experimental part:
as §4

In a further assay the test system is HS852. The assay can be described thus: Cancer cell line panel, HS852 (melanoma). The assay is classed as cell-based. As for the experimental part:
as §4

In another assay the test system is A375. The assay can be described thus: Cancer cell line panel, A375 (melanoma). The assay is classed as cell-based. As for the experimental part: as §4
The mark [1] stands for this setting: read-out: Cisplatin IC50, MMR deficient, p53 wt.

Several values for one entry are separate records, joined by “and”; a condition that tells them apart may be missing. Equal entries are not always repeated. Where two headings read alike, the source gives them in different places.

In the case of `N.N.[Cl][Pt][Cl]` [Cisplatin, reference compound], the IC50 is 215 nM and 244 nM with A2780 (24 hour drug exposure); 547 nM and 672 nM in the assay on A2780/mcp1; 2900 ± 290 nM in the assay with COLO320DM (read-out: Cisplatin IC50, MMR proficient, p53 mut); 2130 ± 30 nM in the assay on HCT116 (MLH1) (setting [1]); 1820 ± 70 nM with SW48 (MLH1) (setting [1]); 4010 ± 100 nM in the assay on RKO (MLH1) (read-out: Cisplatin IC50, MMR deficient). For the same compound, the IC50 in the assay on HCT15 (MSH6) (read-out: Cisplatin IC50, MMR deficient, p53 wt/mut) stood at 2920 ± 20 nM; in the assay with BE (read-out: Cisplatin IC50, MMR status unknown, p53 ?) it was 8670 ± 1420 nM; in the assay on OVCAR5 (read-out: Cisplatin), 1780 ± 100 nM; with OVCAR4 (read-out: Cisplatin), 1640 ± 150 nM; in the assay on T47D (read-out: Cisplatin), 5420 ± 220 nM; in the assay on MCF7 (read-out: Cisplatin) it was 1780 ± 170 nM. The IC50 amounted to 3690 ± 430 nM in the assay on H125 (read-out: Cisplatin), 5160 ± 80 nM in the assay on SKMES (read-out: Cisplatin), 1600 ± 90 nM with HS852 (read-out: Cisplatin) and 613 ± 51 nM in the assay on A375 (read-out: Cisplatin). The “A2780/mcp1 RF (Resistance Factor)” value with A2780/mcp1 is 2.5 and 2.8.
For the compound `CC[n+]1c(/C=C2\Sc3oc4ccccc4c3N2C)ccc2cc(C)ccc21.[I-]` [MMR201], the IC50 in the assay on A2780 (Homo sapiens, A2780, 24 hour drug exposure) stood at 58 ± 5 nM; in the assay with A2780/mcp1 (Homo sapiens, A2780/mcp1) it was 14 ± 1 nM; in the assay with COLO320DM (Homo sapiens, COLO 320DM, MMR proficient, p53 mut, read-out: MMR201 IC50), 594 ± 28.5 nM; in the assay with HCT116 (MLH1) (Homo sapiens, HCT-116, MMR deficient, p53 wt, read-out: MMR201 IC50), 37.9 ± 3.1 nM; in the assay with SW48 (MLH1) (Homo sapiens, MMR deficient, p53 wt, read-out: MMR201 IC50) it was 76.9 ± 7.3 nM; in the assay on RKO (MLH1) (MMR deficient, read-out: MMR201 IC50), 27.2 ± 0.7 nM. Besides, the IC50 was found to be 584 ± 55.1 nM in the assay on HCT15 (MSH6) (Homo sapiens, HCT-15, MMR deficient, p53 wt/mut, read-out: MMR201 IC50); 125 ± 17.3 nM with BE (MMR status unknown, p53 ?, read-out: MMR201 IC50); 699 ± 54.6 nM with OVCAR5 (Homo sapiens, OVCAR-5, read-out: MMR201); 733 ± 41.2 nM with OVCAR4 (Homo sapiens, OVCAR-4, read-out: MMR201); 319 ± 26 nM with T47D (Homo sapiens, read-out: MMR201); 870 ± 54.8 nM with MCF7 (Homo sapiens, read-out: MMR201). Moreover, the IC50 in the assay with H125 (Homo sapiens, NCI-H125, read-out: MMR201) was 130 ± 15 nM; in the assay with SKMES (read-out: MMR201) it was 398 ± 61.9 nM; with HS852 (read-out: MMR201), 75.3 ± 7.1 nM; in the assay on A375 (Homo sapiens, A-375, read-out: MMR201), 118 ± 17.7 nM. Also, in the assay on A2780/mcp1, the “A2780/mcp1 RF (Resistance Factor)” value came out at 0.24.
